Legend:
Format in all cases: cell-based, Chinese Hamster
cell line 1 = experiment: Reproducibility in 2 L bioreactor, cell line 1, average of data sets 1 and 2 (Example 4); conditions: for cell growth (VCC) compared to control: from day 9, 2 L bioreactor, data sets 1 and 2
Experimental: (§1) The ability of cysteine/cystine derivatives to reduce color and acidic species of a recombinant protein preparation produced in cell culture was evaluated in a bioreactor for two cell lines. This model is more representative of the large-scale production than the shake flask due to the geometry and additional control. CHO-DG44 cells from cell line 1 and 2 were inoculated in 1300 mL of basal media at a seeding density of 0.35×10^6 cells/mL in 2 L stirred bioreactor (Sartorius). The cells were cultivated during 14 days in fed-batch mode. The cell cultures were agitated at 280 rpm and the DO was maintained at 40%. The cell culture was maintained at pH 7.0±0.2 with an automatic CO2 sparging regulation. Cells were cultured in a fed-batch mode with bolus addition of Feed every day of culture. The basal media contained 0.04 mmol/L of cysteine+0.38 mmol/L of cystine. The Feed contained 153.3 mmol/L of cystine. Over the entire 14-day production phase, the total volume of Feed added corresponded to 5.7% (w/w) of the culture start volume for cell line 1 and to 3.1% (w/w) of the culture start volume for cell line 2.
(§2) The cysteine present in the Feed was replaced by different cysteine- and cystine derivatives at different percentages as presented in Table 2. A condition with only 50% of cysteine was added to test whether the improvements observed were due to the cysteine derivative or to the reduction of cysteine only. Osmolality was daily monitored using an osmometer from Advanced instrument. Off line pH, dissolved O2 and dissolved CO2 were daily monitored using a Nova Biomedical Phox (Nova biomedical). Metabolites concentrations were daily determined using a CedexBioHT system (Roche). Viable cell concentration and cell viability were measured daily using a ViCell automated cell counter (Beckman Coulter). The cell culture fluid was collected daily by centrifuging 1 mL of cell culture fluid for determination of antibody titer by HPLC prot A (waters) or using protein-L Octet measurement (Pall). At the end of the 14 days of culture, the cell culture fluid was harvested by centrifugation. The supernatant was then purified using a protein-A or L affinity chromatography (GE). The protein-A or L eluates were used for the molecular weight determination using UPLC size exclusion (Waters) and for the charge variants determination using isocapillary focusing (PROTEINSIMPLE iCE3). Another part of the protein-A eluates (only from cell line 1) was concentrated to 40 mg/mL using Amicon centricon centrifugal filter devices (Millipore). Color intensity of the concentrated antibody composition was measured in the concentrated protein A eluates using a spectrophotometer by transmission (UltrascanPro) and compared to the CIE (commission internationale de l'éclairage) scale. The numerical results were normalized to the concentration of 40 mg/mL.
The reproducibility of the results was evaluated in bioreactor with cell line 1. The experiments of Example 3 were repeated with an additional control and a bioreactor with 50% S-sulfocysteine 50% Cysteine Feed. The data from the two experiments were analyzed to confirm the effect previously observed with cysteine/cystine derivatives.

[1] = system: CHO-DG44 cells producing a full-length antibody, mAb1; experiment: Fed-batch shake flask culture with cysteine in Feed replaced by cysteine/cystine derivatives (Example 1)
Experimental: The ability of cysteine/cystine derivatives to reduce color and acidic species of an antibody preparation produced recombinantly by host cells grown in cell culture was evaluated. For this experiment, a scale-down model in shake flask was used. CHO-DG44 cells producing a full-length antibody, mAb1, were inoculated in 100 mL of basal media at a seeding density of 0.35×10^6 cells/mL mAb1 comprises a light chain having the sequence as defined in SEQ ID NO: 9 and a heavy chain having the sequence as defined in SEQ ID NO: 10.
The shake flask vessels were 250 mL shake flasks (corning) disposed in an agitated incubator (Infors) protected from light. The cells were cultivated for 14 days at 36.8° C. with 80% humidity. The cell cultures were agitated at 140 rpm at the beginning of the process. The agitation was increased during the process progressively to reach 250 rpm to maintain a DO % at 40% in the shake flask, as is it done in a 2 L bioreactor process. The cell culture was maintained at pH 7.0±0.2 by decreasing the CO2 in the incubator from 5% before the process to 2% during the process. Cells were cultured in a fed-batch mode with bolus addition of Feed every day of culture. The basal media contained 0.04 mmol/L of cysteine+0.38 mmol/L of cystine. The Feed contained 153.3 mmol/L of cystine. Over the entire 14-day production phase, the total volume of Feed added corresponded to 4.47% (v/v) of the culture start volume.
The cysteine present in the Feed was replaced by different cysteine and cystine derivatives at different percentages as presented in Table 1. Osmolality was daily monitored using an osmometer from Advanced Instruments. Off line pH, dissolved O2 and dissolved CO2 were daily monitored using a model BioProfile pHOx® blood gas analyser (Nova Biomedical Corporation, Waltham, Mass.). Metabolites concentrations were daily determined using a CedexBioHT system (Roche). Viable cell concentration and cell viability were measured daily using a ViCell automated cell counter (Beckman Coulter). The cell culture fluid was collected daily by centrifuging 1 mL of cell culture fluid for determination of antibody titer using protein A HPLC (Waters). At the end of the 14 days of culture, the cell culture fluid was harvested by centrifugation. The supernatant was then purified using a protein-A affinity chromatography (MabSelect Sure, GE). […] The relative percentage of main, acidic (APG for Acidic Peak Group) and basic (BPG for Basic Peak Group) isoforms of the purified mAb was determined by Imaged Capillary Electrophoresis (PROTEINSIMPLE iCE3). […]
Color intensity of the concentrated antibody composition was measured in the concentrated protein A eluates using a spectrophotometer by transmission (UltrascanPro) and compared to the CIE (commission internationale de l'éclairage) scale. […]

[2] = system: CHO-DG44 cells from cell line 1; experiment: Fed-batch 2 L bioreactor culture with cysteine/cystine derivatives, cell line 1 (Example 3); conditions: 50% replacement, cell line 1, 2 L bioreactor; for decrease of the b value level (color intensity) compared to control: 40 mg/mL
Experimental: as §1, §2

[3] = system: CHO-DG44 cells from cell line 2; experiment: Fed-batch 2 L bioreactor culture with cysteine/cystine derivatives, cell line 2 (Example 3); conditions: 50% replacement; cell line 2, 2 L bioreactor
Experimental: as §1, §2

[4] = system: CHO-DG44 cells from cell line 1; experiment: Fed-batch Ambr15 mini bioreactor culture, different replacement levels, cell line 1 (Example 5); conditions: for cell growth: 90% of cysteine/cystine in Feed replaced, Ambr15
Experimental: We tested different concentrations of cysteine/cystine derivatives on the improvement on the APG level of a recombinant protein preparation produced in cell culture cultivated in mini bioreactors. CHO-DG44 cells from cell line 1 were inoculated in 12 mL basal media at a seeding density of 0.35×10^6 cells/mL in Ambr15 bioreactors (Sartorius). The cells were cultivated in fed-batch mode during 14 days. The DO was maintained at 40% and the pH was maintained 7.0±0.2 with an automatic CO2 sparging regulation. Viable cell concentration and cell viability were measured daily using a ViCell automated cell counter (Beckman Coulter). Cells were cultured in a fed-batch mode with a daily bolus addition of Feed. The basal media contained 0.04 mmol/L cysteine+0.38 mmol/L cystine. The Feed contained 153.3 mmol/L of cystine. Over the entire 14-day production phase, the total volume of added Feed corresponded to 4.7% (v/v) of the culture start volume.
Different percentages of cysteine present in the Feed was replaced by different cysteine- and cystine analogs. Table 4 provides an overview of different percentages tested and their equivalence in molar ratio relative to cysteine or cystine. E.g. for N-Acetyl-L-cysteine 10% means that 10% molar amount of cysteine equivalent has been replaced by 10% molar amount of N-Acetyl-L-cysteine; for N,N′-Diacetyl-L-cystine, 10% means that 10 molar amount of cystine equivalent has been replaced with 10% molar amount of N,N′-Diacetyl-L-cystine. At the end of the 14 days of culture, the cell culture fluid was harvested by centrifugation. The supernatant was then purified using a protein-A affinity chromatography (GE). The protein-A eluates were used for the charge variants determination using isocapillary focusing (PROTEINSIMPLE iCE3).

[5] = 50% replacement, compared to 50% cysteine feed
[6] = 50% replacement, data sets 1 and 2 average

Row | SMILES | specific productivity (cell line 1; [5]) | average decrease of b value level (color intensity) compared to control (cell line 1; [6]) [%] | decrease in antibody titer compared to the controls average (cell line 1; [6]) | titer loss due to cysteine reduction in feed compensated (cell line 1; compared to 50% cysteine feed) [%] | decrease of b*value (color intensity) of the concentrated protein-A eluate compared to control ([1]; 50% replacement, day 14, eluate normalized to 40 mg/mL) [%] | decrease on acidic variants level compared to control ([1]; 50% replacement, day 14, iCE3) [%] | decrease of acidic species level compared to control [2] [%] | decrease of antibody titer compared to control [2] | main species level [2] | decrease of the b value level (color intensity) compared to control [2] [%] | decrease of acidic species level compared to control [3] [%] | main species level [3] | acidic species level with respect to the control ([4]; 10-90% replacement) | cell growth [4] | main species level (cell line 1; [6]) | cell growth (VCC) compared to control (cell line 1; 50% replacement) | main charge species level with respect to the control ([4]; 10-90% replacement) | maximum reduction of acidic species level with respect to the control ([4]; with the increase of the percentage of replacement (10-90%)) [%] | maximum viable cell concentration ([1]; 50% of cysteine in Feed replaced) | cell growth (viable cell concentration) compared to control ([1]; 100% of cysteine in Feed replaced by derivative, shake flask, 14 days)
1 | COC(=O)[C@H](CSSC[C@H](NC(C)=O)C(=O)OC)NC(C)=O [N,N′-diacetyl-L-cystine dimethylester, N,N′-diacetyl-L-cystine-dimethylester] | increase of the specific productivity | 30 | less than 5% | 5 | 21.2 | 24.8 | 15 | less than 5% | increase of main species | 25 | 13 | increase of main species | decrease of the acidic species level | Inhibition of the growth |  |  |  |  |  | 
2 | CC(=O)N[C@@H](CSSC[C@H](NC(C)=O)C(=O)O)C(=O)O [N,N′-diacetyl-L-cystine, N,N′-Diacetyl-L-cystine] | did not impact the productivity | 14 | 10% |  |  |  | 5 |  | increase of main species | 2.5 | 8 | increase of main species |  | Inhibition of the growth | increase of main species | higher VCCs than the control conditions | positive difference with respect to the control | 27.5 |  | 
3 | N[C@@H](CSS(=O)(=O)O)C(=O)O [S-sulfocysteine, S-Sulfocysteine, reference compound] | not to a specific impact | 5 | 25% |  |  |  |  |  |  |  |  |  |  |  |  | higher cell death than the control |  |  | 2×10^6 cells/mL | cells rapidly died on day 7

Source: patent US11859203B2, “Cell culture methods” (UCB BIOPHARMA SRL, priority 2017, dated 2024)
